{
  "source": "patent US20260183312A1",
  "about": "“A ROOM-TEMPERATURE STABLE, UNBUFFERED FORMULATION OF ROCURONIUM BROMIDE INJECTION FOR INTRAVENOUS ADMINISTRATION AND A METHOD THEREOF” (MAIVA PHARMA PRIVATE LIMITED, priority 2023, published 2026)",
  "origin": "cited, not measured here",
  "data": [
    {"smiles": "C=CC[N+]1([C@H]2C[C@H]3[C@@H]4CC[C@H]5C[C@H](O)[C@@H](N6CCOCC6)C[C@]5(C)[C@H]4CC[C@]3(C)[C@H]2OC(C)=O)CCCC1", "note": "[Rocuronium, Rocuronium bromide]", "values": [
      {"measurement": "Patients with severe burning pain on administration", "value": "up to 80%"}
    ]}
  ]
}
